Measured values reported in patent EP1243590A2, “Nucleotide analog composition and synthesis method” (GILEAD SCIENCES, INC., priority 1997, dated 1999).
Where a name gives a salt, the structure may show the parent alone.

Legend:
[1] = Hygroscopicity at 92% relative humidity; type: physicochemical; conditions: room temperature, up to 37 days
[2] = Solid state chemical stability on storage at elevated temperature and relative humidity; type: physicochemical; conditions: for BPPF% / mono(POC) PMPA fumarate% / bis(POC) PMPA citrate% / mono(POC) PMPA citrate%: 0 days; for mono(POC) PMPA fumarate%: degradation product in stored BPPF
Text: The solid state chemical stability of cBPPF and bis(POC)PMPA·citrate salt was compared by analyzing each compound after storage under different conditions.

[3] = human, in vivo

## 9-[2-(R)-[[bis[[(isopropoxycarbonyl)oxy]methoxy] phosphinoyl]methoxy]propyl]-adenine•fumaric acid (1:1) [BPPF]
[1]
  hygroscopicity: not hygroscopic
[2]; 40°C, 75% relative humidity
  BPPF%: 99.0%
  mono(POC) PMPA fumarate%: 1.0%
[2]; 60°C, 75% relative humidity
  BPPF%: 99.0%
  mono(POC) PMPA fumarate%: 1.0%
[2]; storage at elevated temperature and relative humidity
  solid state chemical stability compared with bis(POC)PMPA citrate salt: more stable
[3]
  oral bioavailability: 30-40%

## CC(C)OC(=O)OCOP(=O)(CO[C@H](C)Cn1cnc2c(N)ncnc21)OCOC(=O)OC(C)C [bis(POC) PMPA citrate]
[2]; 40°C, 75% relative humidity
  bis(POC) PMPA citrate%: 99.0%
[2]; 40°C, 75% relative humidity, degradation product in stored citrate salt
  mono(POC) PMPA citrate%: 1.0%
[2]; 60°C, 75% relative humidity
  bis(POC) PMPA citrate%: 99.0%
[2]; 60°C, 75% relative humidity, degradation product in stored citrate salt
  mono(POC) PMPA citrate%: 1.0%
[2]; solid, 75% rh, 40°C, 75% relative humidity, 14 days, read-out: bis(POC) PMPA citrate%
  remaining at 336 h: 96.9%
[2]; solid, 75% rh, 40°C, 75% relative humidity, 30 days, read-out: bis(POC) PMPA citrate%
  remaining at 720 h: 92.9%
[2]; solid, 75% rh, 40°C, 75% relative humidity, 60 days, read-out: bis(POC) PMPA citrate%
  remaining at 1440 h: 77.6%
[2]; solid, 75% rh, 60°C, 75% relative humidity, 3 days, read-out: bis(POC) PMPA citrate%
  remaining at 72 h: 24%
[2]; solid, 75% rh, 60°C, 75% relative humidity, 7 days, read-out: bis(POC) PMPA citrate%
  remaining at 168 h: 6.7%
[2]; solid, 40°C, 75% relative humidity, 14 days, degradation product in stored citrate salt, read-out: mono(POC) PMPA citrate%
  degraded at 336 h: 3.1%
[2]; solid, 40°C, 75% relative humidity, 30 days, degradation product in stored citrate salt, read-out: mono(POC) PMPA citrate%
  degraded at 720 h: 7.1%
[2]; solid, 40°C, 75% relative humidity, 60 days, degradation product in stored citrate salt, read-out: mono(POC) PMPA citrate%
  degraded at 1440 h: 22.4%
[2]; solid, 60°C, 75% relative humidity, 3 days, degradation product in stored citrate salt, other products were generated in addition, read-out: mono(POC) PMPA citrate%
  degraded at 72 h: 58.9%
[2]; solid, 60°C, 75% relative humidity, 7 days, degradation product in stored citrate salt, other products were generated in addition, read-out: mono(POC) PMPA citrate%
  degraded at 168 h: 76.2%
